Measurements as given in US20260041744A1, “Methods for Treating Pompe Disease” (Amicus Therapeutics, Inc., priority 2022, published 2026).

Columns and labels:
[1] = tested on: Gaa KO mice; assay: Tissue glycogen content in Gaa KO mice (amyloglucosidase digestion); assay type: in vivo, mouse; conditions: 20 mg/kg ATB200 IV + 10 mg/kg miglustat PO, 6 biweekly administrations
Protocol: The therapeutic effects of ATB200 and miglustat were evaluated and compared against those of Alglucosidase alfa in Gaa KO mice. For the study, male Gaa KO (3-to 4-month old) and age-matched wild-type (WT) mice were used. Alglucosidase alfa was administered via bolus tail vein intravenous (IV) injection. In the co-administration regimen, miglustat was administered via oral gavage (PO) 30 minutes prior to the IV injection of ATB200. Treatment was given biweekly. Treated mice were sacrificed after 14 days from the last administration and various tissues were collected for further analysis. Table 11 summarizes the study design:
Tissue glycogen content in tissues samples was determined using amyloglucosidase digestion, as discussed above.

[2] = in vivo
Protocol: The ongoing open-label extension (OLE) of PROPEL (NCT04138277; ATB200-07) evaluates long-term safety and efficacy of cipa/mig. Outcomes include 6 minute walk distance (6MWD), forced vital capacity (FVC), creatine kinase (CK) and hexose tetrasaccharide (Hex4) levels and safety. Data are reported as change from the PROPEL baseline to OLE week 52 (104 weeks after the PROPEL baseline).

[3] = tested on: adult subjects with late-onset Pompe disease (LOPD); assay: Study ATB200-03: SGIC, PGIC and additional PROs (PROMIS-dyspnea, PROMIS-upper extremity, R-PAct, EQ-5D-5L); assay type: in vivo, human; conditions: week 52
Description: Additional PROs included PROMIS-dyspnea, PROMIS-upper extremity, R-PACT, EQ-5D-5L, SGIC. The PGIC was also included.
Across all of these domains a greater percentage of patients in the overall population treated with cipaglucosidase alfa/miglustat reported improvement, and a lower percentage reported worsening, compared with patients treated with alglucosidase alfa. […] Results are shown below for the SGIC overall physical well-domain, which is representative of the benefits reported across these measures (FIG. 86).

[4] = tested on: Pompe disease patients; assay: Cross-study comparison of long-term effects on 6MWD and FVC (Example 12); assay type: in vivo, human; conditions: ERT-experienced patients
Description: FIG. 53A-FIG. 53B show the 6-minute walk test (6MWT) percentage predicted during treatment with alglucosidase alfa. […] The data from year 2 onward show the decline expected in ERT-experienced patients remaining on alglucosidase alfa.

[5] = tested on: adults with Pompe disease; assay: Study ATB200-02: SGIC and PGIC; assay type: in vivo, human; conditions: 48 months follow-up
[6] = tested on: adult subjects with late-onset Pompe disease (LOPD); assay: Study ATB200-03 (PROPEL): GSGC total score; assay type: in vivo, human; conditions: for CHG to Week 52 in GSGC total score, LS Mean: MMRM, actual time point of assessments, decrease indicates improvement; for GSGC total score CHG, LS means (SE): Week 52, ANCOVA
Protocol: The test for the primary endpoint was conducted first at the 1-sided 0.025 significance level, and if significant, the ordered key secondary endpoints were similarly tested at the same significance level. […] A nonparametric randomization based ANCOVA was specified as the first sensitivity analysis for 6MWD and FVC. […] For the purposes of data presentation in this document, 2-sided p-values are reported hereafter, except as otherwise noted.

[7] = tested on: adult subjects with late-onset Pompe disease (LOPD); assay: Study ATB200-03 (PROPEL): sitting % predicted FVC; assay type: in vivo, human; conditions: for absolute decline in percent-predicted FVC: 52 weeks; for CHG to Week 52 in sitting % predicted FVC, LS Mean: MMRM, actual time point of assessments; for Sitting % predicted FVC CHG, LS means (SE): Week 52, ANCOVA
Protocol: The test for the primary endpoint was conducted first at the 1-sided 0.025 significance level, and if significant, the ordered key secondary endpoints were similarly tested at the same significance level. The statistical significance of the key secondary endpoints was interpreted following a hierarchical testing order, each at the 1-sided alpha level of 0.025. […] Primary analyses of efficacy were performed using the mixed-effect model for repeated measures (MMRM) for 6MWD in Intent-to-treat Observed Population (ITT) that includes all available, observed data without any missing data imputation (ITT-OBS) and analysis of covariance (ANCOVA) for all other endpoints in the Intent-to-Treat-Last Observation Carried Forward (ITT-LOCF) Population. A nonparametric randomization based ANCOVA was specified as the first sensitivity analysis for 6MWD and FVC. […] For the purposes of data presentation in this document, 2-sided p-values are reported hereafter, except as otherwise noted.

[8] = Cohort 1, ambulatory ERT-experienced, N = 7
[9] = Cohort 2, non-ambulatory ERT-experienced, N = 5
[10] = Cohort 3, ambulatory ERT-naïve, N = 6
[11] = Cohort 4, ambulatory ERT-experienced, N = 6
[12] = ERT-naïve excluding Subject 4005-2511
[13] = ITT-OBS excluding Subject 4005-2511 (overall)
[14] = ITT-OBS excluding Subject 4005-2511, ERT-naïve Subjects
[15] = ITT-OBS, ERT-experienced Subjects
[16] = Week 52-LOCF, ERT-experienced Population
[17] = Week 52-LOCF, ERT-naïve Subjects excluding Subject 4005-2511
[18] = Week 52-LOCF, ITT excluding Subject 4005-2511
[19] = ITT-LOCF excluding Subject 4005-2511
[20] = ITT-LOCF, ERT-experienced Population
[21] = Baseline, ITT, ERT-naïve Population excluding Subject 4005-2511
[22] = Week 52-LOCF, ERT-naïve Population excluding Subject 4005-2511

ATB200/miglustat: two-component therapy: cipaglucosidase alfa (ATB200) administered in conjunction with miglustat (AT2221), a stabilizer of cipaglucosidase alfa
tissue glycogen content vs alglucosidase alfa [1]: significantly decreased the glycogen content in four different tissues (quadriceps, triceps, gastrocnemius, and heart) as compared to the same dosage of alglucosidase alfa | patients who discontinued the OLE due to infusion-associated reactions [2]: Three | safety and tolerability up to 104 weeks [2]: No new safety signals were identified | SGIC and PGIC outcome [3]: SGIC and PGIC showed consistently greater improvement favoring cipaglucosidase alfa/miglustat treatment | long-term motor function by 6MWD after switching from alglucosidase alfa [4]: progressive gains in motor function as assessed by 6MWD | long-term pulmonary function by FVC after switching from alglucosidase alfa [4]: stability in pulmonary function as assessed by FVC | PGIC: Declined, % [5, 8]: (0) % | PGIC: Improved, % [5, 8]: (57.1) % | PGIC: No change, % [5, 8]: (42.9) % | SGIC; Overall physical wellbeing: Declined, % [5, 8]: (0) % | SGIC; Overall physical wellbeing: Improved, % [5, 8]: (85.7) % | SGIC; Overall physical wellbeing: No change, % [5, 8]: (14.3) % | PGIC: Declined, % [5, 9]: (0) % | PGIC: Improved, % [5, 9]: (60.0) % | PGIC: No change, % [5, 9]: (40.0) % | SGIC; Overall physical wellbeing: Declined, % [5, 9]: (0) % | SGIC; Overall physical wellbeing: Improved, % [5, 9]: (60.0) % | SGIC; Overall physical wellbeing: No change, % [5, 9]: (40.0) % | PGIC: Declined, % [5, 10]: (0) % | PGIC: Improved, % [5, 10]: (100.0) % | PGIC: No change, % [5, 10]: (0) % | SGIC; Overall physical wellbeing: Declined, % [5, 10]: (0) % | SGIC; Overall physical wellbeing: Improved, % [5, 10]: (83.3) % | SGIC; Overall physical wellbeing: No change, % [5, 10]: (16.7) % | PGIC: Declined, % [5, 11]: (0) % | PGIC: Improved, % [5, 11]: (33.3) % | PGIC: No change, % [5, 11]: (66.7) % | SGIC; Overall physical wellbeing: Declined, % [5, 11]: (16.7) % | SGIC; Overall physical wellbeing: Improved, % [5, 11]: (66.7) % | SGIC; Overall physical wellbeing: No change, % [5, 11]: (16.7) %

alglucosidase alfa [reference compound]
GSGC Total Score Absolute Value, Median ([6]; Baseline, ITT, ERT-naïve Subjects excluding Subject 4005-2511): 9.00 | GSGC Total Score Absolute Value, Mean ([6]; Baseline, ITT, ERT-naïve Subjects excluding Subject 4005-2511, 4 points (normal) to 27 points (worst)): 10.86 | mean (SD) change in GSGC total score from baseline to Week 52 ([6]; ERT-experienced Population): 0.6 (1.83) | mean (SD) change in GSGC total score from baseline to Week 52 [6, 12]: 1.3 (1.80) | Change in GSGC total score baseline to Week 52, LS means (SE) from ANCOVA ([6]; ITT-LOCF, ERT-naïve Subjects excluding Subject 4005-2511): 0.91 (1.042) | CHG to Week 52 in GSGC total score, LS Mean [6, 13]: 0.8 | CHG to Week 52 in GSGC total score, LS Mean [6, 14]: 1.3 | CHG to Week 52 in GSGC total score, LS Mean [6, 15]: 0.5 | GSGC Total Score Absolute Value, Mean [6, 16]: 15.87 | GSGC Total Score Absolute Value, Median [6, 16]: 17.00 | GSGC Total Score CHG, Mean [6, 16]: 0.61 | GSGC total score CHG, Median [6, 16]: 0.00 | GSGC Total Score Absolute Value, Mean [6, 17]: 12.14 | GSGC Total Score Absolute Value, Median [6, 17]: 10.00 | GSGC Total Score CHG (change from baseline), Mean [6, 17]: 1.29 | GSGC Total Score CHG (change from baseline), Median [6, 17]: 1.00 | GSGC Total Score Absolute Value, Median [6, 18]: 16.00 | GSGC total score Absolute Value, Mean (SD) [6, 18]: 15.00 (4.488) | GSGC total score CHG, Mean (SD) [6, 18]: 0.77 (1.813) | GSGC total score CHG, Median [6, 18]: 0.50 | GSGC total score CHG, LS means (SE) [6, 19]: 0.847 (0.440) | GSGC total score CHG, LS means (SE) [6, 20]: 0.65 (0.494) | GSGC outcome ([6]; overall (and ERT-experienced) population, week 52): worsening | mean (SD) change in GSGC total score from baseline to Week 52 ([6]; overall population, negative = improvement, listed as alglucosidase alfa and placebo): 0.77 (1.8) | mean (SD) change in GSGC total score from baseline to Week 52 ([6]; overall population, negative = improvement, listed as alglucosidase alfa/placebo): 0.77 (1.81) | Sitting % Predicted FVC Absolute Value, Mean [7, 21]: 79.07 % predicted | Sitting % predicted FVC Absolute Value, Median [7, 21]: 93.50 % predicted | FVC (% predicted) CFBL at Week 52 ([7]; ERT switch (ERT-experienced) population): −4.0 (0.9) % predicted | FVC (% predicted) CFBL at Week 52 ([7]; ERT treatment naive population): −3.6 % predicted | FVC (% predicted) CFBL at Week 52 ([7]; ERT treatment naive population, listed as Alglucosidase alfa): −3.6 (1.8) % predicted | absolute decline in percent-predicted FVC ([7]; ERT-experienced): 4.0% | mean change in sitting % predicted FVC from baseline to Week 52 [7, 12]: −3.6% | Change in sitting % predicted FVC baseline to Week 52, LS means (SE) from ANCOVA ([7]; ITT-LOCF, ERT-naïve Population excluding Subject 4005-2511): −2.54 (2.758) % predicted | CHG to Week 52 in sitting % predicted FVC, LS Mean [7, 13]: −3.7 | CHG to Week 52 in sitting % predicted FVC, LS Mean [7, 14]: −2.4 | CHG to Week 52 in sitting % predicted FVC, LS Mean [7, 15]: −3.8 | Sitting % predicted FVC Absolute Value, Mean (SD) [7, 16]: 63.47 (20.480) % predicted | Sitting % predicted FVC Absolute Value, Median [7, 16]: 62.00 % predicted | Sitting % predicted FVC CHG, Mean (SD) [7, 16]: −4.02 (5.009) % predicted | Sitting % predicted FVC CHG, Median [7, 16]: −3.25 % predicted | Sitting % Predicted FVC Absolute Value, Mean [7, 22]: 75.43 % predicted | Sitting % Predicted FVC CHG (change from baseline), Mean [7, 22]: −3.64 % predicted | Sitting % Predicted FVC CHG (change from baseline), Median [7, 22]: −3.00 % predicted | Sitting % predicted FVC Absolute Value, Median [7, 22]: 85.00 % predicted | Sitting % predicted FVC Absolute Value, Mean (SD) [7, 18]: 65.73 (21.109) % predicted | Sitting % predicted FVC Absolute Value, Median [7, 18]: 69.00 % predicted | Sitting % predicted FVC CHG, Mean (SD) [7, 18]: −3.95 (4.892) % predicted | Sitting % predicted FVC CHG, Median [7, 18]: −3.00 % predicted | Sitting % predicted FVC CHG, LS means (SE) [7, 19]: −3.70 (0.953) % predicted | Sitting % predicted FVC CHG, LS means (SE) [7, 20]: −3.64 (1.019) % predicted | FVC (% predicted) CFBL at Week 52 ([7]; overall ERT switch + ERT naïve population): −4.0 (0.8) % predicted | absolute decline in percent-predicted FVC ([7]; overall population): 4.0%
